Assay results as given in publication PMC10531095, “Photonics of Some Monomethine Cyanine Dyes in Solutions and in Complexes with Biomolecules” (International Journal of Molecular Sciences, 2023).

Tests used:
dsDNA = assay: Flash photolysis: triplet state of MCD in the presence of dsDNA; set-up: species or system chick; settings: for k1, decay rate constant of the T state (first exponent) / k2, decay rate constant of the T state (second exponent): two-exponential decay
Excerpt: Upon direct flash photoexcitation of deoxygenated solutions of MCD 1–4, signals corresponding to triplet–triplet (T–T) absorption were not observed due to the low efficiency of intersystem crossing to the triplet (T) state, in comparison with competing processes of nonradiative deactivation of excited states of dye molecules, which is common for MCD [41]. Complexation with dsDNA hinders these competing processes, which leads to an increase in the quantum yield of the T state of MCD. In the presence of dsDNA, under direct photoexcitation, the signals of T states of MCD 1–3 were detected, and their different T–T absorption spectra were measured (Figure 10).
Quantum yields of intersystem crossing to the triplet state (ΦST) of MCD 1–3 in the presence of dsDNA were estimated by flash photolysis using optical actinometry (see Materials and Methods). The obtained values of ΦST for MCD 1–3 were 2.6 ± 0.4%, 5.7 ± 0.8%, and 10.7 ± 1.5%, respectively.
The spectral–kinetic characteristics of the T state of MCD were studied by flash photolysis. The experiment was carried out on a setup with excitation by a xenon lamp (lamp flash energy ~50 J, duration τ1/2 = 10 μs). When registering T states, the solutions were deoxygenated using a vacuum setup. The manometric unit was used to determine the air pressure in a series of experiments on T state quenching by dissolved oxygen. The T state of MCD 4 in PBS solution in the presence of dsDNA was obtained by energy transfer from the triplet level of sodium naphthalene-2-sulfonate (ET~21,000 cm^−1 [83]). The quantum yields of T states (ΦT) of the dyes in the presence of dsDNA were estimated actinometrically. Dyes with known ΦT were used as actinometers: the xanthene dye Acid Red 87 (ΦT = 0.8 (aq); [84]) and the cyanine dye 3,3′-diethyl-9-methoxythiacarbocyanine iodide (ΦT = 0.16–0.20 in n-propanol; [85]).

[1] = biological target: T1, human serum albumin (HSA) (Homo sapiens, UniProt P02768); assay: Spectral fluorescent titration of the dyes with HSA in PBS; type: binding; settings: for nSc, stoichiometric coefficient (Scatchard): HSA (nSc = 1 taken for HSA); for KeffBH, effective complexation constant (Benesi–Hildebrand): fluorescent titration; for αb, proportion of bound dye: cbiomol = 5 × 10^−5 mol L^−1; for Fmax/F0, fluorescence growth at 100% binding: from the Benesi–Hildebrand dependence; for K2Sc, complexation constant (Scatchard): nSc = 1; for φfl^b, fluorescence quantum yield of the dye in the presence of biopolymer: cHSA~5 × 10^−5 mol L^−1; for LOD: detection of HSA; for LOQ: quantification of HSA
T1 construct: purchased Sigma-Aldrich
T1 sequence (P02768 25-609): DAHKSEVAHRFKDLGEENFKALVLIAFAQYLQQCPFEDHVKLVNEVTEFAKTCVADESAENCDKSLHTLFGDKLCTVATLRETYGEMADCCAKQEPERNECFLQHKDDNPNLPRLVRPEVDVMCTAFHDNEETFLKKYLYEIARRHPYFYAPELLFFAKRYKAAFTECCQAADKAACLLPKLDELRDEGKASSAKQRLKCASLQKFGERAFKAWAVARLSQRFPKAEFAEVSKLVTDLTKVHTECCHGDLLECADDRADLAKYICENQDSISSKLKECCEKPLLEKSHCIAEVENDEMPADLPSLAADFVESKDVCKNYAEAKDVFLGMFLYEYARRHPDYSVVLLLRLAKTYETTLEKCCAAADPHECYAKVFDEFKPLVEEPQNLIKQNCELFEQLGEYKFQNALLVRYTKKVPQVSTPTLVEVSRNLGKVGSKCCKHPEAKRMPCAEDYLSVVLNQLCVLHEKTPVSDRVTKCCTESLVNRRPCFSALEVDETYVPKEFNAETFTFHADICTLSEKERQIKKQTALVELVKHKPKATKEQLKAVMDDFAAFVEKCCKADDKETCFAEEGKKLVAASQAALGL
Excerpt: Complexation of MCD 1–4 with DNA (double-stranded and single-stranded) and with human serum albumin (HSA) was studied by spectral fluorescent methods in a wide range of biopolymer concentrations (cdsDNA = 0–1.5 × 10^−4 mol L^−1; cssDNA = 0–1.4 × 10^−4 mol L^−1; cHSA = 0–1.4 × 10^−4 mol L^−1 in PBS buffer). The absorption, fluorescence, and fluorescence excitation spectra of MCD 1 and 3 in the presence of dsDNA are shown in Figure 3 and Figure 4, respectively.
The complication of chemical equilibrium, and the variety of interactions between MCD and biopolymer (dye aggregation/deaggregation, the possibility of forming complexes of several types with DNA/HSA) makes it problematic to determine the exact values of the complexation constants of the dyes with DNA. The values of the effective equilibrium constants of the complexation reaction of MCD with biopolymers (Keff, L mol^−1, see Table 7) were estimated from spectral fluorescent data. In this case, we had to assume a simple equilibrium MCD (monomer, free) ⇄ MCD (monomer, bound). For these purposes, we used the Benesi–Hildebrand [59], Hill, and Scatchard formalisms (See Supplementary Materials, Equations (S9)–(S13)). For dsDNA, fitting according to the modified Scatchard equation was carried out assuming one dye molecule per one DNA turn (K1Sc at nSc = const = 10 b.p.), as well as varying both the constant (K2Sc) and the stoichiometric coefficient (nSc). In the case of ssDNA, nSc is given per one base; for HSA, nSc = 1.
Distilled water, 0.01 M aqueous phosphate buffer saline solution (PBS; pH 7.4, containing 0.137 M NaCl and 0.0027 M KCl), ethanol, benzyl alcohol, isopentyl alcohol, acetonitrile, DMSO, 1,4-dioxane, chloroform, DMSO, acetone, methyl ethyl ketone, ethyl acetate (all analytical grade). Commercial chick erythrocyte DNA (Reanal, Budapest, Hungary) and human serum albumin (HSA, Sigma-Aldrich, St. Louis, MO, USA) were used.
Absorption spectra were recorded on an SF-2000 spectrophotometer (Experimental-Construction Company “Spectrum”, St. Petersburg, Russia); fluorescence and fluorescence excitation spectra were recorded on a Fluorat-02-Panorama spectrofluorimeter (Group of Companies “Lumex”, St. Petersburg, Russia). The fluorescence and fluorescence excitation spectra were corrected for the spectral characteristics of the instrument (excitation channel signal) and sample transmission. Changes in the intrinsic fluorescence of HSA upon binding of MCD (in the presence of the dyes) were recorded in the synchronous fluorescence scanning (SFS) mode. In SFS mode, when registering spectra, a fixed difference Δλ= λfl − λex is maintained for the channels of excitation and registration. Synchronous scanning spectra were obtained at Δλ = 15 nm (fluorescence of tyrosine residues in the HSA molecule) and Δλ = 60 nm (fluorescence of tryptophan). The spectra were measured in 1 cm quartz semi-micro cells (Bio-Rad, Hercules, CA, USA).
The equilibrium constants of MCD complexation with biomolecules (Ka, L mol^−1) were obtained from fluorescence spectra using the Benesi–Hildebrand [59], Hill, and Scatchard equations [61] (see Supplementary Materials, Equations (S9)–(S13)). Limits of detection (LOD) and quantification (LOQ) of biomolecules were determined from concentration plots of MCD fluorescence intensities (see Supplementary Materials, Equations (S14) and (S15)). […]
1. Spectral‐Fluorescent Titration
In experiments on spectral‐fluorescence titration, MCD 1–4 were dosed from their concentrated st ock solutions in EtOH. Microvolumes (~0.5–5 μL) were dosed into the measuring cell (dilution 1:500 – 1:1000). […]
Measurements of the intrinsic fluorescence of HSA in the presence of MCD were carried out at a constant concentration of HSA (cHSA ~ 2.0 × 10–5 mol L–1) by titration with increasing concentrations of dyes. After stirring, the absorption and fluorescence spectra of the dyes were recorded several times. […]

SMILES	k1, decay rate constant of the T state (first exponent) (dsDNA)	k2, decay rate constant of the T state (second exponent) (dsDNA)	LR, linear portion of fluorescence intensity vs. concentration plot ([1]; HSA)	nHill, Hill coefficient ([1]; HSA)	nSc, stoichiometric coefficient (Scatchard) [1]	KeffHill, effective complexation constant (Hill) ([1]; HSA, PBS buffer)	KeffBH, effective complexation constant (Benesi–Hildebrand) ([1]; HSA, PBS buffer)	αb, proportion of bound dye ([1]; HSA)	Fmax/F0, fluorescence growth at 100% binding ([1]; HSA)	K2Sc, complexation constant (Scatchard) ([1]; HSA)	φfl^b, fluorescence quantum yield of the dye in the presence of biopolymer [1]	LOD [1]	LOQ [1]	other results
CCN1/C(=C/c2sc3ccccc3[n+]2CC)Sc2ccccc21 [MCD 3]	~ 1.3 × 10^4 s^−1	~ 4 × 10^3 s^−1	0 to 1 µmol/L	0.59	1	27800 L/mol	17600 L/mol	50%	26	34000 L/mol	50%	77 nM	230 nM	kqO2, rate constant of triplet state quenching by dissolved oxygen (dsDNA; main (short-lived) component): 3.6e+08 M⁻¹ s⁻¹; φfl^b, fluorescence quantum yield of the dye in the presence of biopolymer ([1]; listed as 3): ~50 ± 6%
CCN1/C(=C/c2ccc3ccccc3[n+]2CC)C=Cc2ccccc21 [MCD 4]	–	–	0.7–7.5 ^2 µmol L^−1	0.61	1	1830 L/mol	4820 L/mol	20%	109	17000 L/mol	~0.5 ± 0.1%	730 nM	2200 nM	τT, lifetime of the T state (dsDNA): ~ 0.03 ms; drop in the apparent extinction coefficients ([1]; interaction with HSA): 1.5–2 fold
CC[N+](CC)(CC)CCC[n+]1ccc(/C=C2\Sc3ccccc3N2C)c2ccc(O)cc21 [MCD 1]	~ 9.9 × 10^3 s^−1	~2000 s⁻¹	0–0.6 ^3 µmol L^−1	0.89	1	3350 L/mol	8000 L/mol	27%	65	7300 L/mol	~1 ± 0.1%	270 nM	890 nM	lower sensitivity to HSA than to dsDNA ([1]; HSA versus dsDNA): about 37 times; εf/εb, relative change in molar extinction coefficient on complexation ([1]; HSA, PBS buffer): 1.59; hypochromia of the absorption band ([1]; cHSA = 2.5 × 10^−7 mol L^−1): ~ 25%; hypochromia of the absorption band ([1]; cHSA~9 × 10^−6 mol L^−1, crel(HSA) = 3): ~ 36%
